Data as given in patent US10934224B2, “Production of arginine-rich proteins from wastewater and use as a fertilizer” (Genebiologics, LLC, priority 2016, dated 2021).

Assays:
[1] = system: Arabidopsis thaliana seeds; experiment: Arabidopsis thaliana seed germination and growth in liquid culture; format: in vivo; conditions: for root growth: 100 μg/ml in water; for optimal level (germination): day 4; for optimal level (biomass): day 5
Procedure: Approximately 300 Arabidopsis thaliana seeds were soaked in 75% ethanol for one minute, then soaked in 10% bleach, 0.02% TRITON×100 for five minutes, then washed five times with sterile water. The seeds were then resuspended in about 4 ml water, and dispensed into 30 Eppendorf tubes at approximately 100 microliters per tube, for a total of 8-9 seeds per tube. Test conditions included either water, 1× or 0.1×MS medium (Caisson; […] Root length and stem lengths are in mm.

[2] = cited from earlier work
[3] = Inhibition of cobalt binding to cation exchange resin; conditions: for effect on binding of cobalt to CM sepharose: 2.5 μM CoCl2, 0.95 μM inhibitor
Procedure: After sitting for 1 minute the sepharose was washed 2× with water to remove excess cobalt and inhibitor. The cobalt was then stripped from the column material with 50 μl of 50 mM EDTA and this cobalt-containing wash was made basic with 50 μl of 50 mM NaOH. The cobalt-containing wash was then monitored on a DU800 spectroscope at 463 nm wavelength for the data of Table 2 (FIG. 7), and from 350 nm to 650 nm for FIG. 5. The data of FIG. 5 and FIG. 7 were from separate experiments acquired on two different days.

E. coli strain NK5992 = experiment: Growth of E. coli arginine auxotroph on arginine or polyarginine; format: cell-based
Procedure: Cells were grown in triplicate at 37° C. on a 96-well plate with measurement at 600 nm using a Tecan InfiniteM200 pro.

Row | Compound | root growth [1] | optimal level (germination) [1] | effect on percent germination ([1]; day 4, added to 0.1×MS medium) | optimal level (biomass) [1] | pKa of guanidinium group [2] | effect on binding of cobalt to CM sepharose [3] | effect on binding of cobalt to CM sepharose ([3]; listed as Arginine) | competition with cobalt for binding to CM sepharose ([3]; 2.6-fold excess cobalt per arginine monomer, anionic sites limiting) | growth ([1]; 0.1× MS, 10 μg/ml, isolated case) | growth of arginine auxotroph on the substance (E. coli strain NK5992; M9 medium, 37° C., 600 nm) | growth relative to arginine monomer (E. coli strain NK5992; on a per-monomer equivalency)
1 | N=C(N)NCCC[C@H](N)C(=O)O [arginine] | not found | 100 µg/mL | same relative effect | 100 µg/mL | approximately 12.4 | not by the presence of arginine | enhanced the binding of cobalt | did not compete | – | – | –
2 | polyarginine | large amount of root growth | 100 µg/mL | – | 100 µg/mL | – | inhibited | – | – | increased growth | does grow on polyarginine | grows more poorly
